Data taken from US6864356B2, “Sixteen amino acid of the antineoplastic protein (ANUP) as a pharmacologically active anti-tumor agent” (priority 1997, dated 2005).
Non-standard residues stand in square brackets, D forms with d. No end group written: not given here. pGlu = O=C1CC[C@@H](C(=O)O)N1

Experiments:
[1] = tested on: human breast tumor cell line (MDA 231); assay: in vitro antitumor (tumor killing) assay, neutral red dye, 96 well plates; format: cell-based; details: MDA 231 cells
Procedure: The antitumor activity of the peptide (P16) was assayed against the human breast tumor cell line (MDA 231) and its activity was compared to the in vitro antitumor effect of the “pure” protein (ANUP).
The assay for the pharmacological antitumor activities were performed as follows utilizing 96 well plates—
20,300-30,000 human breast tumor cells in L-15 medium (200 μl) containing 2.5% fetal calf serum and 100 μg gentamycin per ml (complete medium) were incubated at 37° in air for 120 hours; after this incubation period 50 μl of serially diluted P16 and ANUP were added to each well. […] The solutions were diluted in complete medium containing 0.05% SDS to a concentration of 350 μg per ml.
Dilution plates were prepared as follows:
100 μl of complete medium were added to each well and 50 μl of diluted P16 and ANUP were added to each well in row A thus 1.3 dilution was accomplished; 50 μl were serially diluted in the 100 μl of medium in rows B through H. Thus the range of concentrations were from 6 μg to 2 mg when 50 μl each dilution series were added to the 200 μl of the complete medium containing the MDA cells. The plates were incubated for an additional 96-120 hours. The medium was poured off and after a 90-minute incubation with 50 μl neutral red dye (0.5 ml neutral red (0.25% ethanol (0.6 ml) diluted 5.5 saline-0.16 mm HCl) the cells were washed twice with PBS (phosphate buffer saline) at room temperature. The concentration of living cells (since only living cells absorb the dye) was determined after adding 100 μl lysing buffer (50% ethanol in 0.05 m NaH2 PO4) the concentration of neutral red released in each well was determined using a Dynetech plate reader set at […]. A unit of activity was defined as the concentration of ANUP and P16 for 50% killing.

[2] = tested on: tumor cells; details: electron microscopy (Struve et al. 1990); cited from earlier work

synthetic hexadeca peptide (16 L-amino acids), partial N-terminal sequence of ANUP: Pyroglu-Leu-Lys-Cys-Tyr-Thr-Cys-Lys-Glu-Pro-Met-Thr-Ser-Ala-Ala-Cys (SEQ ID NO: 1) ([pGlu]LKCYTCKEPMTSAAC; cysteine pairing not given here) [P16]
Fraction of the Activity relative to ANUP ([1]; + 0.005% SDS): 0.04 | Fraction of the Activity relative to ANUP ([1]; + 0.02% SDS): 0.50 | Fraction of the Activity relative to ANUP ([1]; + 0.05% SDS): 0.50 | antitumor activity in the absence of SDS ([1]; absence of SDS): neither the peptide nor the protein showed any antitumor activity | activity compared to the protein (ANUP), molar basis ([1]; in vitro): about 50% | IC50 ([1]; medium containing SDS, 96-120 hours incubation, read-out: 50% end point (concentration for 50% killing)): 22 nM | Fraction of the Activity relative to ANUP ([1]; no SDS): ± no Activity | weight of peptide required relative to weight of protein (ANUP) for equal activity ([1]; weight basis): one tenth | effect on tumor cells by electron microscopy [2]: complete degradation of the cells
